Patent publication US20160166572A1, “BENEFICIAL EFFECTS OF Lp-PLA2 INHIBITORS IN TREATMENT OF DIABETIC RETINOPATHY AND AGE-RELATED MACULAR DEGENERATION” (Rowan University, priority 2014, published 2016)

How the values were obtained:
porcine retina = assay: Cell number in retinal GCL and INL by counting DAPI-positive nuclei, DMHC pigs; type: in vivo, pig; details: Darapladib 10 mg/kg/d orally, 24 weeks, FIG. 3D-E
Description: Briefly, after induction of diabetes by a single injection of Streptozotocin, animals were fed a high cholesterol diet. After a month of DMHC induction and acclimation, animals were randomly segregated to untreated DMHC and Darapladib-treated DMHC groups. Darapladib-treated pigs received 10 mg/kg/d of Darapladib orally. Three of the pigs were spared from DMHC induction and served as age-matched, non-DMHC normal controls. Twenty four weeks after acclimation, animals were euthanized and their brains and eyes were immediately removed. Brains were divided anteroposteriorly into anterior, middle and posterior regions. For each of these brain regions, 2-3 tissue blocks were generated for routine tissue fixation (10% formalin) or freezing and histological processing. The anterior cortical region comprised of anterior ⅔ of frontal lobe and anterior ⅓ of temporal lobe. […] Cells positive for GFAP were counted throughout the whole thickness of the retina, and then quantified using ImagePro7.0 (Media Cybernetics, Silver Spring, Md.). Briefly, a 300×300 pixel square area was randomly made in each retinal section in three contiguous locations across the retina and the positive GFAP area was determined per total area using a fixed threshold. […] Cell number was determined by counting the DAPI-positive nuclei in a fixed area. […]

occludin = assay: Occludin protein expression in BVECs of cerebral cortex (IHC, MATLAB), DMHC pigs; type: in vivo, pig; details: Darapladib 10 mg/kg/d orally, 24 weeks
Description: Briefly, after induction of diabetes by a single injection of Streptozotocin, animals were fed a high cholesterol diet. After a month of DMHC induction and acclimation, animals were randomly segregated to untreated DMHC and Darapladib-treated DMHC groups. Darapladib-treated pigs received 10 mg/kg/d of Darapladib orally. Three of the pigs were spared from DMHC induction and served as age-matched, non-DMHC normal controls. Twenty four weeks after acclimation, animals were euthanized and their brains and eyes were immediately removed. Brains were divided anteroposteriorly into anterior, middle and posterior regions. For each of these brain regions, 2-3 tissue blocks were generated for routine tissue fixation (10% formalin) or freezing and histological processing. The anterior cortical region comprised of anterior 2⁄3 of frontal lobe and anterior 1⁄3 of temporal lobe. The middle cortical region contained mid 1⁄3 of temporal lobe and anterior 1⁄2 of the parietal lobe. The posterior cortex included the posterior 1⁄2 of the parietal lobe, posterior 1⁄3 of the temporal lobe and the occipital lobe. Eyes were dissected longitudinally to sever the retina at the optic nerve. The sections were fixed in 10% formalin and embedded as flattened disc in paraffin. The tissue samples were processed using routine histology techniques. Standard Hematoxylin & Eosin (H&E) staining (FIG. 1) was carried out in retinal sections. […] Extravasated IgG was detected using biotinylated anti-swine IgG antibody (Vector laboratories, Inc., Catalogue # BA-9020; dilution 1:100). […] Slides were examined and photographed with a Nikon FXA microscope, and digital images were recorded using a Nikon DXM1200F digital camera and analyzed using MATLAB (MathWorks, Mass., USA) and NIS-elements software (Nikon, Melville, N.Y.). […] Claudin5 and occludin protein expression in pig cerebral cortex was evaluated semi-quantitatively using IHC by taking images at five random locations as described previously. Images were analyzed using MATLAB (MathWorks, Mass., USA). […]

`CCN(CC)CCN(Cc1ccc(-c2ccc(C(F)(F)F)cc2)cc1)C(=O)Cn1c(SCc2ccc(F)cc2)nc(=O)c2c1CCC2` [Darapladib] was tested, and the “cell number (nuclei) in GCL” value (porcine retina) was “comparable to controls”, the “cell number (nuclei) in INL” value (porcine retina) was “comparable to controls” and the “occludin protein expression, middle cortex” value (occludin; FIG. 7E) was “comparable levels of occludin expression”. The “occludin protein expression, anterior cortex” value (occludin; rank among treatment groups, FIG. 7D) was “highest level of occludin expression” and the “occludin protein expression, posterior cortex” value (occludin; rank among treatment groups, FIG. 7F) was “lowest expression”.
